The values below come from patent publication US9512091B2, “Compositions and methods for the modulation of specific amidases for N-acylethanolamines for use in the therapy of inflammatory diseases” (Epitech Group S.r.l., priority 2012, dated 2016).

Usually IC50 stands for the concentration needed to halve the response being measured. In general, solubility refers to the concentration that dissolves in the medium under given conditions. Usually melting point stands for the temperature, or range, at which the solid turns liquid.

Each structure is given as a SMILES string.

For series [1], the target named is T1, NAAA (N-Acylethanolamine Hydrolizing Acid Amidase) (Homo sapiens, UniProt Q02083).
T1 construct: expressed in transfected cells; host or cells: HEK cells permanently transfected with NAAA (HEK-NAAA); 12000 g membrane fraction
T1 sequence (Q02083 29-359): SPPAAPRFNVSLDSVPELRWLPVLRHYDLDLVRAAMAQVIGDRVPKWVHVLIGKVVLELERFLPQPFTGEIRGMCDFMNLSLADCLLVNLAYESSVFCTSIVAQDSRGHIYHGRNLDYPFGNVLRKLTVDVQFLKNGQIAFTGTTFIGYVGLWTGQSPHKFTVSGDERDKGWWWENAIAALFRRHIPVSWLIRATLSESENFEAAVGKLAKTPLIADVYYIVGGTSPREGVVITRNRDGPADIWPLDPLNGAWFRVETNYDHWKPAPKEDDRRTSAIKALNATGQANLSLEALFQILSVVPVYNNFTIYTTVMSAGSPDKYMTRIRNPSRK
The series can be described thus: Activity on the NAAA enzyme, membranes of HEK-NAAA cells, [14C]PEA hydrolysis. It is filed as biochemical. The settings on record: HEK-NAAA membranes 50 μg/sample, [14C]PEA 20 μM, 30 min at 37° C.; mean of 10 experiments; read-out: Inhibition of NAAA IC50 (after 30 min incubation). The procedure: The effect of the samples being analysed on the enzymatic activity of the NAAA (N-Acylethanolamine Hydrolizing Acid Amidase) was determined on suitably permanently transfected cellular lines (HEK-NAAA). The cells were homogenised using TRIS-HCl 20 Mm (pH 7.4) by means of dounce. Subsequently a mild centrifugation (10 min, 800 g, 4° C.) was carried out for removing the cellular debris. The cellular fraction containing the membranes was obtained by means of subsequent centrifugation (30 min, 12000 g, 4° C.). The membranes (50 μg/sample) were incubated for 30 min at 37° C. with [^14C]PEA (20 μM; 10000 cpm/sample; 5 nCi/nmols) in presence and in absence of the substances to be tested. The incubation was blocked by adding 2 volumes of CHCl3/CH3OH (1:1/v:v). The radioactivity associated to the aqueous phase containing [^14C]Ethanolamine (produced by the hydrolysis of the radioactive substrate) was determined by means of β-Counter (Beckman Counter, LS6500 Scintillation Counters, Milan).

Series [2] can be described thus: Solubility of the prepared product. The settings on record: for solubility / Solubility in ethanol: ethanol; for solubility: organic solvent or mixture. Type of series: physicochemical.
Series [3] has as its system edema of the legs induced by sub-plantar carrageenan. Put plainly: Carrageenan edema of the legs, plantar volume by plethysmometer. Type of series: in vivo, rat. Particulars: for increase of plantar volume in percentage with respect to carrageenan alone (carrageenan=100): rat, PEA 33 μM/Kg, PEA-OXA (30 mg/Kg) μM/Kg, 5 experiments. The procedure: The experimental model of edema of the legs is induced through sub-plantar injection of a carrageenan solution (containing 50 μl of sterile saline solution and 1% of carrageenan) in the right leg of the animal (rat).
At specific time intervals the plantar volume is measured by means of a plethysmometer (Ugo Basile, Milan, Italy). The increase of the plantar volume is evaluated as the difference between the value obtained in the specific time intervals and the volume at the basal (time 0) measured immediately before the administration of carrageenan.
The data obtained from 5 different experiments, each involving 10 animals per group, were tabled (tab 2) in percentage with respect to the animals treated with carrageenan alone (carrageenan=100): […]
(Carrageenan injected into the paw causes an acute inflammation.)

In another series the test system is hepatic esterases. The settings on record: prior-art statement on poor selectivity; cited from earlier work.

For `O=C(CCc1ccccc1)N[C@H]1COC1=O` [(S)-N-(2-oxo-3-oxetanyl)-3-phenylpropionamide, reference compound], in series [1], the IC50 was found to be 0.42 µM.
As for `CCCCCCCCCCCCCCCC1=NC(C)(C)CO1` [Example 5, 2-pentadecyl-4,4-dimethyl-2-oxazoline], in series [2], the solubility was more than 10 mg/mL and the Solubility in water entry is “poorly soluble”.
On to `CCCCCCCCCCCCCCCC1=NC(CO)(CO)CO1` [Example 6, 2-pentadecyl-4,4-bis(hydroxymethyl)-2-oxazoline], for which, in series [2], the solubility is more than 10 mg/mL and the Solubility in water result is given as “poorly soluble”.
`CCCCCCCCCCCCCCC1=NCCO1` [Example 7, 2-tetradecyl-2-oxazoline] yielded a melting point of 41 to 44 °C. Besides, in series [2], the solubility was more than 10 mg/mL and the Solubility in water entry is “poorly soluble”.
Take `CCCCCCCCCCCCCCCCC1=NCCO1` [Example 8, 2-hexadecyl-2-oxazoline]: the melting point lay in the range of 49 to 51 °C. Moreover, in series [2], the solubility was more than 10 mg/mL and the Solubility in water result is given as “poorly soluble”.
Take `CCCCCCCCCCCCCCCC1=NC[C@@H](C)O1` [Example 9, 2-pentadecyl-5(R)-methyl-2-oxazoline]: in series [2], the solubility was more than 10 mg/mL and the Solubility in water entry is reported as “poorly soluble”.
Regarding `CCCCCCCCCCCCCCCC1=NC[C@H](C)O1` [Example 10, 2-pentadecyl-5(S)-methyl-2-oxazoline], in series [2], the solubility was more than 10 mg/mL and the Solubility in water entry was “poorly soluble”.
Turning to `CCCCCCCCCCCCCCCC1=N[C@H](C)CO1` [Example 11, 2-pentadecyl-4(R)-methyl-2-oxazoline], in series [2], the solubility is more than 10 mg/mL and the Solubility in water entry was “poorly soluble”.
On the same counts, the results for `CCCCCCCCCCCCCCCC1=N[C@@H](C)CO1` [Example 12, 2-pentadecyl-4(S)-methyl-2-oxazoline] are more than 10 mg/mL and “poorly soluble”.
For `CCCCCCCCCCCCCCCC1=NC(CO)CO1` (centres unmarked) [Example 13, 2-pentadecyl-4-hydroxymethyl-2-oxazoline] the same measures were more than 10 mg/mL and “poorly soluble”.
`CCCCCCCCCCCCCCCC1=NC(C(=O)OC)CO1` (centres unmarked) [Example 14, 2-pentadecyl-4-methyloxycarbonyl-2-oxazoline]: in series [2], the solubility is more than 10 mg/mL and the Solubility in water entry is on record as “poorly soluble”.
In the case of `CCCCCCCCCCCCCCCC1=NC(C(=O)O)CO1` (centres unmarked) [Example 14b, 2-pentadecyl-4-carboxy-2-oxazoline], in series [2], the solubility was more than 10 mg/mL and the Solubility in water entry was “poorly soluble”.
Consider `CCCCCCCCCCCCCCCC1=NCCCO1` [Example 15, 2-pentadecyl-2-oxazine], for which, in series [2], the Solubility in ethanol is more than 10 mg/mL and the Solubility in water result is recorded as “poorly soluble”.
For `CCCCCCCCCCCCCCCC1=NCCS1` [Example 16, 2-pentadecyl-2-thiazoline], in series [2], the solubility is more than 10 mg/mL and the Solubility in water entry was “poorly soluble”.
As to `CCCCCCCCCCCCCC(=O)NCCO` [MEA, Myristoyl ethanolamide, reference compound], in series [1], the IC50 is more than 50 µM.
For `CCCCCCCCCCCCCC1=NCCO1` [MEA-OXA, 2-tridecyl-2-oxazoline], the IC50 in series [1] stood at 41.5 ± 0.032 µM. Moreover, in series [2], the solubility is more than 10 mg/mL and the Solubility in water result is listed as “poorly soluble”.
Take `CCCCCCCC/C=C\CCCCCCCC(=O)NCCO` [OEA, Oleoylethanolamine, reference compound]: in series [1], the IC50 was more than 50 µM.
`CCCCCCCCC=CCCCCCCCC1=NCCO1` [OEA-OXA, 2-(8-heptadecenyl)-2-oxazoline]: the IC50 in series [1] is 38.4 ± 0.034 µM. In addition, in series [2], the solubility is more than 10 mg/mL and the Solubility in water result is listed as “poorly soluble”.
Regarding `CCCCCCCCCCCCCCCC(=O)NCCO` [PEA, Palmitoylethanolamide, reference compound], in series [1], the IC50 was more than 50 µM. The “increase of plantar volume in percentage with respect to carrageenan alone (carrageenan=100)” value (shortened to “increase of plantar volume in percentage”) in series [3] (30 min) stood at 89.2 ± 2.2%; in series [3] (1 hr), 82 ± 1.8%; in series [3] (2 hrs) it was 78.3 ± 1.6%; in series [3] (3 hrs), 73.9 ± 2.1%; in series [3] (4 hrs), 70.1 ± 1.9%; in series [3] (5 hrs), 54.5 ± 0.63%. In series [3] (6 hrs), the “increase of plantar volume in percentage” value came out at 32.9 ± 0.41%.
On to `CCCCCCCCCCCCCCCC1=NCCO1` [PEA-OXA, 2-pentadecyl-2-oxazoline], for which the 50% inhibitory concentration (IC50) in series [1] came to 24.2 ± 0.018 µM. Moreover, the “increase of plantar volume in percentage” value was 88.2 ± 2.0% in series [3] (30 min); 81.2 ± 2.1% in series [3] (1 hr); 66.6 ± 0.78% in series [3] (2 hrs); 59.6 ± 0.62% in series [3] (3 hrs); 51.4 ± 0.58% in series [3] (4 hrs); 43.0 ± 0.42% in series [3] (5 hrs). In series [3] (6 hrs), the “increase of plantar volume in percentage” value came to 31.2 ± 0.22%. Moreover, in series [3] (rat carrageenan edema, especially between 2 and 5 hours from carrageenan), the “anti-inflammatory activity with respect to PEA” value was “greater anti-inflammatory activity”. The solubility in series [2] was more than 10 mg/mL. For the same compound, in series [2], the Solubility in water result is given as “poorly soluble”.
Turning to `CCCCCCCCCCCCCCCC1=NCCO1` [PEA-OXLE], the 50% inhibitory concentration (IC50) in series [1] is 32.1 ± 0.031 µM. Moreover, in series [2], the Solubility in ethanol was more than 10 mg/mL and the Solubility in water entry is “poorly soluble”.
Regarding `CCCCCCCCCCCCCCCCCC(=O)NCCO` [SEA, Stearylethanolamide, reference compound], the IC50 in series [1] was more than 50 µM.
Regarding `CCCCCCCCCCCCCCCCCC1=NCCO1` [SEA-OXA, 2-heptadecyl-2-oxazoline], the melting point was 51 to 53 °C. Moreover, the IC50 in series [1] stood at 35 ± 0.021 µM. Moreover, in series [2], the solubility was more than 10 mg/mL and the Solubility in water result is on record as “poorly soluble”.
As to `NC(=O)c1cccc(-c2cccc(OC(=O)NC3CCCCC3)c2)c1` [URB597, cyclohexyl carbamic acid 3′-carbamoyl-biphenyl-3-yl ester], in the series with hepatic esterases, the “inhibition of hepatic esterases” value is “more than 40%”.
